Assays:
human TRPA1 = experiment: Ratiometric calcium imaging of NAPQI activation of TRPA1 in HEK 293 cells; format: cell-based; details: 7 μM NAPQI; for inhibition of the activation of the receptor (TRPA1) by NAPQI: 4 μM test substance, HEK 293 cells expressing human TRPA1, FIG. 1
Protocol: The calcium ion channel TRPA 1 is activated by NAPQI. This activation may be determined by ratiometric calcium imaging.
HEK 293 cells expressing human TRPA1 were pre-incubated with 7 μM NAPQI and the calcium fluorophore FURA II. One experiment was run in the presence of 4 μM NBMI and the another was run in the presence of 4 μM NAC.

[1] = Clinical proof of concept study: paracetamol and cys-paracetamol in venous blood after 1 g paracetamol with or without NBMI; format: in vivo, human; details: venous blood over eight hours
Protocol: A pilot clinical study was performed at the Lund Hospital Clinical Trial Unit, on three occasions.

[2] = test system: paracetamol intoxicated mice; experiment: Paracetamol intoxicated mice study, oral paracetamol (ALT); format: in vivo
Protocol: (§1) The ratio of AST: ALT can also be relevant in humans; a value at or below 1 is considered to indicate toxicity.
20 minutes later, half of the mice (3) were administered vehicle (0.5% (w/v) carboxymethylcellulose 300-600 centipoises in water) only, half of the mice (3) received NBMI 100 mg/kg per os (NBMI dissolved in CMC as described below). […]

[3] = test system: paracetamol intoxicated mice; experiment: Paracetamol intoxicated mice study, i.p. paracetamol (ALT, AST); format: in vivo; details: paracetamol 300 mg/kg I.P., 24 hours
Protocol: In normal mice, the liver enzyme alanine transaminase (ALT) level is about 36-40 unit/L and the liver enzyme aspartate transaminase (AST) level is about 90 unit/L. […] The ratio of AST: ALT can also be relevant in humans; a value at or below 1 is considered to indicate toxicity. […] 30 minutes later, two (2) of the mice were administered vehicle only, two (2) received NAC 1200 mg/kg per os, two (2) received NBMI 200 mg/kg per os. The mice were sacrificed at 24 hours.

[4] = test system: paracetamol intoxicated mice; experiment: NBMI versus vehicle in paracetamol intoxicated mice, i.p. paracetamol, synchronised oral dosing (AST, ALT); format: in vivo
Protocol: as §1
Mice were sacrificed at 24 hours after administration, following which levels of liver enzymes AST and ALT were measured.
In the NBMI-treated group, eleven (11) mice were treated.

[5] = Clinical trials of NBMI, adverse events; format: in vivo; details: 4.5-9 mg/kg dose in humans
[6] = NBMI 200 mg/kg per os 30 minutes later
[7] = paracetamol 200 mg/kg i.p., synchronous oral NBMI 680 mg/kg in CMC, 24 hours
[8] = NAC 1200 mg/kg per os 30 minutes later

Structure (SMILES)	receptor activation (human TRPA1; in the absence of NBMI or NAC)	inhibition of the activation of the receptor (TRPA1) by NAPQI (human TRPA1)	decrease of area under the curve (AUC) of cys-paracetamol ([1]; 600 mg NBMI one hour prior to 1 g paracetamol)	decrease of area under the curve (AUC) of cys-paracetamol ([1]; 1,200 mg NBMI two hours before 1 g paracetamol)	median ALT level ([2]; paracetamol 700 mg/kg per os, NBMI 100 mg/kg per os 20 minutes later, sacrificed at 17 hours)	median ALT lower than the median of the intoxicated animals ([2]; po, 100 mg/kg)	AST level (printed as ALT level) [3, 6]	average ALT level [3, 6]	AST/ALT ratio, average ([4]; 680 mg/kg, 24 h)	ALT, average [4, 7]	AST, average [4, 7]	drug related adverse events [5]	AST level [3, 8]	average ALT level [3, 8]
CC(=O)N=C1C=CC(=O)C=C1 [NAPQI, N-acetyl-p-benzoquinone imine]	about 55%	–	–	–	–	–	–	–	–	–	–	–	–	–
O=C(NCCS)c1cccc(C(=O)NCCS)c1 [NBMI, N,N-bis-2-mercaptoethyl isophthalamide]	–	almost completely inhibited	23%	73%	624 unit/L	about 95%	600 unit/L	984 unit/L	2.1	952 units/L	753 units/L	no drug related adverse events	–	–
CC(=O)N[C@@H](CS)C(=O)O [NAC, N-acetyl cysteine, reference compound]	–	only partial inhibition	–	–	–	–	–	–	–	–	–	–	180 unit/L	55 unit/L

Reference: US20250325503A1, “NEW USE OF N,N-BIS-2-MERCAPTOETHYL ISOPHTHALAMIDE” (EMERAMED LIMITED, priority 2016, published 2025)
